According to patent US6703413B2 (Rhode Island Hospital, priority 1999, dated 2004):

Assays:
[1] = test system: SKOV-3 human ovarian tumor xenografts; assay: Therapeutic effectiveness against i.p. human ovarian tumor xenografts; type: in vivo, female nude mice
Description: Fourteen days following the final Taurolidine injection, mice in all groups were sacrificed and the peritoneal cavity examined for the presence of tumors. Each experimental was repeated three times and the pooled number of animals in each group ranged from 15-21.
Fourteen days following the final Taurolidine injection, mice in all groups were sacrificed, i.p. ovarian tumor xenografts removed and tumor weighed. Each experiment was repeated three times and the pooled number of animals in each group ranged from 15-21. Each bar represents the mean (±SE) tumor weight of 15-21 animals. ***p≦0.001, **** p≦0.0001.
To evaluate therapeutic effectiveness, mice received a single intraperitoneal injection of 5×10^6 SKOV-3 cells in a volume of 0.5 ml. Immediately thereafter, mice were randomly divided into treatment groups of 7 animals. […] Control animals received 1 ml injections of 5% Kollidon 17 PF alone. Animals were examined daily and body weight recorded twice weekly. […] The mean tumor weight for each treatment group was calculated and statistical analysis of differences in the mean tumor weight between treatment groups employed the Student's t-test. p-values of ≦0.05 were considered significant.
Studies next evaluated the antineoplastic activity of this regimen in mice bearing i.p. human ovarian tumor xenografts derived from the SKOV-3 cell line. Mice were injected i.p. with 5×10^6 SKOV-3 cells. […] Fourteen days following the termination of Taurolidine therapy, mice were sacrificed and all i.p. tumors removed and weighed.

[2] = Taurolidine-induced toxicity, 3 d i.p. bolus injection regimen; type: in vivo; details: for mortality (%): i.p., 3 consecutive days
Procedure: Control animals received 1 ml injections of 5% Kollidon 17 PF alone. Animals were examined daily and body weight recorded twice weekly. A reduction in body weight of greater than 10% was considered significant. The maximally tolerated dose (MTD) was considered to be the dose which produced ˜10% mortality.
During the injection regimen, and daily thereafter for 30 d, mice were weighed and examined. Experiments were repeated a minimum of three times and mortality and weight loss data pooled.

[3] = therapy delayed for up to 3 d after tumor cell injection
[4] = therapy initiated on the day of tumor cell injection

## O=S1(=O)CCN(CN2CCS(=O)(=O)NC2)CN1 [Taurolidine, Bis-(1,1-dioxoperhydro-1,2,4-thiadiazinyl-4)methane]
[1]; 20 mg/mouse/injection x 3 d i.p. from day of tumor cell injection
  ascites formation: no evidence of ascites formation
[1]; 20 mg/mouse/injection x 3 d i.p. from day of tumor cell injection, nineteen days after injection
  Mean tumor weight: less than 50 mgs
[1]; [3]
  mean tumor size versus controls: significantly smaller than in controls
  mice tumor free upon sacrifice: approximately 10%
[1]; therapy initiated 5 d after tumor cell injection (established i.p. tumors)
  tumor growth: significantly inhibiting tumor growth
[1]; [4]
  mean tumor size in treated mice with tumors, smaller than control: approximately 40 fold
  treated mice with no evidence of disease upon sacrifice: ~80%
[2]; 10 mg/mouse/inj
  mortality (%): 6%
[2]; 20 mg/mouse/inj
  mortality (%): 13%
[2]; 25 mg/mouse/inj
  mortality (%): 47%
[2]; 30 mg/mouse/inj
  mortality (%): 100%
[2]; daily doses below 15 mg/mouse (~650 mg/kg), 3 d i.p. regimen
  tolerability: well-tolerated
[2]; mouse, in vivo, ip
  MTD: 20 mg/inj
  maximally tolerated dose (MTD): 20 mg/mouse
